Our source for the viability values is PMC12040169 (PLOS Biology, 2025).

The nature of the data set: in vitro. As to conditions: human, hela cells, % viability.

In general, viability refers to a read-out of living cells in per cent, often relative to untreated cells.

For `Nc1nc2c(s1)c(=O)[nH]c(=O)n2-c1ccc(Cl)cc1` [CBK269891], the viability at 28.5 h, 10 µM stood at 78.1%.

Turning to `COc1c(C)cc(S(=O)(=O)NCCN2CCOCC2)c(C)c1C` [CBK269893], the viability at 28.5 h, 10 µM is 94.1%.

With `Cc1cc(NS(=O)(=O)N2CCOCC2)no1` [CBK269894], the viability at 28.5 h, 10 µM came out at 89.9%.

For `COc1ccc(CCNc2nc3c([nH]2)c(=O)n(C)c(=O)n3C)cc1` [CBK269897], the viability at 28.5 h, 10 µM is 85.5%.

`CC(=O)Nc1ccc(NC(=O)C2COc3ccccc3O2)cc1C` (stereo not shown) [CBK269898]: the viability at 28.5 h, 10 µM stood at 99.1%.

Regarding `Fc1ccc(COc2ccc(Cl)cc2CNCc2ccccn2)cc1` [CBK269899C], the viability at 28.5 h, 10 µM turned out to be 85.5%.

As for `O=C(NCc1ccco1)c1cc(S(=O)(=O)N2CCOCC2)ccc1Br` [CBK269907], the viability at 28.5 h, 10 µM came to 90.7%.

Take `Cc1ccc2[nH]c(SCc3nc(O)c4ccccc4n3)nc2c1` [CBK269908]: the viability at 28.5 h, 10 µM was determined as 84%.

Consider `COc1ccc2c(c1)c1nc(C)sc1n2CCN1CCCCC1` [CBK269909C], for which the viability at 28.5 h, 10 µM was determined as 93.3%.

In the case of `O=S(=O)(NCCCn1ccnc1)c1cccs1` [CBK269912], the viability at 28.5 h, 10 µM came out at 95.1%.

Consider `COc1ccc2oc(C(=O)NCCN3CCOCC3)c(C)c2c1OC` [CBK269913C], for which the viability at 28.5 h, 10 µM came out at 86.8%.

On to `COc1ccc(CNc2ccc(N3CCOCC3)c(C(=O)O)c2)cc1OC` [CBK269915], for which the viability at 28.5 h, 10 µM is 95.2%.

For `O=C(CSc1nc2cc(Cl)ccc2[nH]1)Nc1ccccc1F` [CBK269916], the viability at 28.5 h, 10 µM was 84.8%.

For the compound `COc1ccc(Cl)cc1S(=O)(=O)N(C)CC(=O)O` [CBK269919], the viability at 28.5 h, 10 µM came to 97.1%.

For the compound `Cc1nc(SCC(=O)O)nc(O)c1CCC(C)C` [CBK269920], the viability at 28.5 h, 10 µM worked out at 92.9%.

`Cc1ccc(C)c(OCC(=O)Nc2ccccc2C(=O)N2CCN(C)CC2)c1` [CBK269924]: the viability at 28.5 h, 10 µM stood at 91.1%.

As for `Cc1cc(C)n(CC(=O)NCC2CCCO2)c(=O)c1C#N` (stereo not shown) [CBK269926], the viability at 28.5 h, 10 µM worked out at 85.4%.

`OCc1nnc2c3ccccc3c(-c3ccccc3)nn12` [CBK269927]: the viability at 28.5 h, 10 µM is 94.2%.

Turning to `CCOc1ccc(-c2cnc(SCC(=O)O)nc2N)cc1` [CBK269928], the viability at 28.5 h, 10 µM amounted to 105%.

As for `CC(C)(C)c1ccc(C(=O)Nc2cnn(CCCC(=O)O)c2)cc1` [CBK269929], the viability at 28.5 h, 10 µM was 94.2%.

Regarding `CC(NC(=O)OC(C)(C)C)c1nnc(SCC(=O)N(C)C)o1` (stereo not shown) [CBK269932], the viability at 28.5 h, 10 µM was determined as 88.3%.

With `CCNC(=O)c1ccccc1NC(=O)C(C)Oc1ccccc1` (stereo not shown) [CBK269933], the viability at 28.5 h, 10 µM amounted to 85.8%.

With `CCOc1ccc2ccccc2c1CNCc1cccnc1` [CBK269934C], the viability at 28.5 h, 10 µM amounted to 91.8%.

On to `O=C(O)COc1ccc(S(=O)(=O)N2CCCc3ccccc32)cc1` [CBK269935], for which the viability at 28.5 h, 10 µM is 110%.

Consider `CCOC(=O)CSc1nc(=O)cc(N)n1Cc1ccc(F)cc1` [CBK269938], for which the viability at 28.5 h, 10 µM was determined as 91.1%.

As for `OCCn1c(COc2cccc3cccnc23)nc2ccccc21` [CBK269942], the viability at 28.5 h, 10 µM stood at 79.5%.

For the compound `O=S(=O)(NCc1cccnc1)N1CCOCC1` [CBK269945], the viability at 28.5 h, 10 µM worked out at 85.1%.

With `Cc1nn(Cc2cccc3ccccc23)c(C)c1NC(=O)c1cccnc1` [CBK269946], the viability at 28.5 h, 10 µM was found to be 90.6%.

In the case of `CNCc1cccc(OC)c1OCc1ccccc1F` [CBK269949C], the viability at 28.5 h, 10 µM amounted to 99.2%.

Consider `CC(=O)Nc1cccc(NC(=O)CN(C)S(=O)(=O)c2ccc(F)cc2)c1` [CBK269951], for which the viability at 28.5 h, 10 µM worked out at 90.2%.

Regarding `CCOc1ccc(S(=O)(=O)N(C)CC(=O)N2CCN(C)CC2)cc1` [CBK269953], the viability at 28.5 h, 10 µM was determined as 93.8%.

For `CCOc1cc(C)c(Cl)cc1S(=O)(=O)NCc1ccncc1` [CBK269954], the viability at 28.5 h, 10 µM stood at 85.8%.

With `Cc1[nH]c2cc(C(=O)O)ccc2c1CC(=O)O` [CBK269955], the viability at 28.5 h, 10 µM was 98%.

Regarding `COc1ccc(OC)c(NC(=O)NCCc2c[nH]cn2)c1` [CBK269956], the viability at 28.5 h, 10 µM amounted to 92.4%.

For `NS(=O)(=O)c1ccc(-c2nc(-c3ccccc3)no2)cc1` [CBK269957], the viability at 28.5 h, 10 µM came out at 87.8%.

Regarding `CCOc1ccc(C(=O)Nc2ccc(S(=O)(=O)N3CCN(C)CC3)cc2)cc1` [CBK269959], the viability at 28.5 h, 10 µM worked out at 85.5%.

Consider `Cc1nn(CCC(=O)NCc2ccco2)c(C)c1Cl` [CBK269961], for which the viability at 28.5 h, 10 µM amounted to 88.8%.

Consider `O=C(NCCc1c[nH]c2ccc(F)cc12)Nc1ccccc1` [CBK269964], for which the viability at 28.5 h, 10 µM was found to be 107%.

Consider `CCOC(=O)CC1C(=O)NCCN1Cc1cccc(C)n1` (stereo not shown) [CBK269965], for which the viability at 28.5 h, 10 µM came to 101%.

On to `O=C(O)CCCn1cc(NC(=O)c2cc(F)c(F)cc2Cl)cn1` [CBK269967], for which the viability at 28.5 h, 10 µM is 87.8%.

On to `CCOc1ccc(S(=O)(=O)N2CCCC(C(=O)NCCO)C2)cc1` (stereo not shown) [CBK269968], for which the viability at 28.5 h, 10 µM stood at 83.8%.

Regarding `COc1ccc(NC(=O)CSc2cnn[nH]2)c(OC)c1` [CBK269969], the viability at 28.5 h, 10 µM is 76.7%.

On to `Cc1cc(C)nc(Nc2noc(-c3ccccc3)n2)n1` [CBK269971], for which the viability at 28.5 h, 10 µM is 94.5%.

As for `CCOc1ccc(N2C(=O)CC(NC3CCN(c4ncccn4)CC3)C2=O)cc1` (stereo not shown) [CBK269972], the viability at 28.5 h, 10 µM was found to be 112%.

In the case of `CCOc1cccc(CNc2ccc(N3CCOCC3)c(C(=O)O)c2)c1` [CBK269973], the viability at 28.5 h, 10 µM is 92.9%.

Turning to `O=C(NCCc1cnc[nH]1)NC1CCCCC1` [CBK269975], the viability at 28.5 h, 10 µM came out at 100%.

As to `CN1CCN(c2nc3c([nH]2)c(=O)n(C)c(=O)n3C)CC1` [CBK269976], the viability at 28.5 h, 10 µM was 86.1%.

For the compound `Oc1c(CN2CCOCC2)ccc(CN2CCOCC2)c1O` [CBK269979], the viability at 28.5 h, 10 µM stood at 100%.

Regarding `O=C(Nc1ccccc1)c1cccc(S(=O)(=O)NCc2ccncc2)c1` [CBK269980], the viability at 28.5 h, 10 µM stood at 102%.

Consider `COc1cc(CNC(C)c2ccccc2)ccc1OCC(N)=O` (stereo not shown) [CBK269982C], for which the viability at 28.5 h, 10 µM was determined as 92.8%.

For `O=C(COc1ccc2c(c1)OCO2)NCc1ccccn1` [CBK269983], the viability at 28.5 h, 10 µM was 95.3%.

On to `Cc1cn2c3c(=O)n(CCN4CCOCC4)c(=O)n(C)c3nc2n1CC1CCCO1` (stereo not shown) [CBK269985], for which the viability at 28.5 h, 10 µM was 92.3%.

Take `O=C(O)CNS(=O)(=O)c1c(F)c(F)c(F)c(F)c1F` [CBK269986]: the viability at 28.5 h, 10 µM was 84.6%.

Regarding `Fc1ccc(COc2cccc(CNCc3ccccn3)c2)cc1` [CBK269987C], the viability at 28.5 h, 10 µM is 109%.

Take `COc1cc(S(=O)(=O)NCc2ccncc2)c(C)cc1C` [CBK269988]: the viability at 28.5 h, 10 µM worked out at 91.8%.

Turning to `NC(=O)c1c(NC(=O)CSC2=NCCS2)sc2c1CCCC2` [CBK269989], the viability at 28.5 h, 10 µM turned out to be 87.9%.

Take `Cc1nn(Cc2cccc3ccccc23)c(C)c1NC(=O)c1ccncc1` [CBK269990]: the viability at 28.5 h, 10 µM was found to be 93.4%.

Consider `O=C(CSc1nnc(-c2ccccn2)[nH]1)NC1CC2CCC1C2` (stereo not shown) [CBK269994], for which the viability at 28.5 h, 10 µM is 83%.

Take `COc1ccc(S(=O)(=O)NCCCn2ccnc2)cc1Cl` [CBK269997]: the viability at 28.5 h, 10 µM was 97.2%.

Take `O=C(CSCc1ccc(Cl)c(Cl)c1)Nc1ncccn1` [CBK269998]: the viability at 28.5 h, 10 µM was 89.7%.

On to `COc1ccc(S(=O)(=O)NCCN2CCOCC2)c(Cl)c1Cl` [CBK269999], for which the viability at 28.5 h, 10 µM stood at 95%.
